Data on 28 compounds can be found in patent US4711890A, “Pharmaceutical compositions containing azanaphthalene-carboxamide derivatives, azanaphthalene-carboxamide derivatives and process for their use” (Rhone-Poulenc Sante, priority 1982, dated 1987).

The test system of the first assay is binding sites for [^3 H] diazepam in the brain.
Experiment: not given
To be noted: [3H] diazepam sites; cited from earlier work.
Take `O=C1CN=C(c2ccccc2Cl)c2cc([N+](=O)[O-])ccc2N1` [clonazepam]: the “affinity / activity at brain (central) binding sites, in words” value is on record as “very strong affinity”.
Take `CN1C(=O)CN=C(c2ccc(Cl)cc2)c2cc(Cl)ccc21` [Ro-5-4864, 7-chloro-5-(p-chlorophenyl)-1,3-dihydro-1-methyl-2H-1,4-benzodiazepin-2-one]: the “affinity / activity at brain (central) binding sites, in words” value was “inactive”.

Another assay has as its target cerebral receptor sites for benzodiazepines. The assay is described as follows: Affinity for the cerebral-type receptor sites for benzodiazepines: displacement of 3H-diazepam on rat brain membranes. The assay is classed as binding. To be noted: 3H-diazepam displacement. The method, then: The affinity of the compounds of formula (I) for the cerebral receptor sites for benzodiazepines was determined, by the method of MOHLER et al, Life Sciences, 1977, 20, 2101, on rat brain membranes.
(Displacement assays read how much labelled ligand stays bound in the presence of the test substance.)
The Ki is a dissociation constant, usually derived from enzyme kinetics or from competition with a known ligand. A lower Ki goes with a stronger hold on the target. `CCN(CC)C(=O)c1cc(-c2ccc(C)cc2)nc2ccccc12` [Example 24, N,N-diethyl-2-(4-methylphenyl)-quinoline-4-carboxamide]: the affinity, expressed as Ki, was 330 nM.
Still for that read-out and setting: the result for `O=C(c1cc(-c2ccccn2)nc2ccccc12)N1CCCCC1` [Example 3, 1-[2-(pyridin-2-yl)-quinolin-4-yl]-carbonylpiperidine] reads 160 nM; that for `CCN(CC)C(=O)c1cc(-c2ccccc2)nc2ccccc12` [Example 1, N,N-diethyl-2-phenylquinoline-4-carboxamide], 50 nM; that for `O=C(c1cc(-c2ccccc2)nc2ccccc12)N1CCOCC1` [Example 5, 4-(2-phenylquinolin-4-yl)-carbonylmorpholine], 90 nM.
Still for that read-out and setting: the result for `CCN(CC)C(=O)c1cc(-c2ccccc2F)nc2ccccc12` [Example 38, N,N-diethyl-2-(2-fluorophenyl)-quinoline-4-carboxamide] reads 310 nM; that for `O=C(c1cc(-c2ccccc2)nc2ccccc12)N1CCCCC1` [Example 4, 1-(2-phenylquinolin-4-yl)-carbonylpiperidine], 40 nM.
The same measure, in the same setting: the result for `O=C1CCN(C(=O)c2nc(-c3ccccc3)nc3ccccc23)CC1` [Example 53, 1-[(2-phenylquinazolin-4-yl)-carbonyl]-piperidin-4-one] reads 270 nM.
Compound `O=C(c1cc(-c2ccccc2)nc2ccccc12)N1CCCC1` [Example 11, 1-(2-phenylquinolin-4-yl)-carbonylpyrrolidine] came in with a Ki of 130 nM.
Same read-out and setting: in the case of `O=C(c1nc(-c2ccccc2)nc2ccccc12)N1CCCC1` [Example 26, 1-[(2-phenylquinazolin-4-yl)-carbonyl]-pyrrolidine] it was 90 nM; in that of `CCN(CC)C(=O)c1cc(-c2ccc(F)cc2)nc2ccccc12` [Example 10, N,N-diethyl-2-(4-fluorophenyl)-quinoline-4-carboxamide], 210 nM; in that of `O=C(c1nc(-c2ccccc2)nc2ccccc12)N1CCCCC1` [Example 27, 1-[(2-phenylquinazolin-4-yl)-carbonyl]-piperidine], 70 nM.
Same read-out and setting: the result for `CCN(CCC1CCNCC1)C(=O)c1cc(-c2ccccc2)nc2ccccc12` [Example 49, N-ethyl-N-[2-(piperidin-4-yl)-ethyl]-2-phenylquinoline-4-carboxamide] reads 400 nM; that for `CCN(CC)C(=O)c1nc(-c2ccccc2)nc2ccccc12` [Example 25, N,N-diethyl-2-phenylquinazoline-4-carboxamide], 390 nM; that for `CNC1=Nc2ccc(Cl)cc2C(c2ccccc2)=[N+]([O-])C1` [Chlorodiazepoxide, reference compound], 80 nM.

The subject of the next assay is binding sites for [^3 H] diazepam in the kidneys.
Experiment: not given
The conditions noted are these: kidneys / peripheral level, [3H] diazepam sites; cited from earlier work.
Regarding `O=C1CN=C(c2ccccc2Cl)c2cc([N+](=O)[O-])ccc2N1` [clonazepam], the “affinity / activity at kidney (peripheral) binding sites, in words” value was “virtually inactive”.
As to `CN1C(=O)CN=C(c2ccc(Cl)cc2)c2cc(Cl)ccc21` [Ro-5-4864, 7-chloro-5-(p-chlorophenyl)-1,3-dihydro-1-methyl-2H-1,4-benzodiazepin-2-one], the “affinity / activity at kidney (peripheral) binding sites, in words” value was “very active”.

Test system in another assay: not given
Experiment: not given
To be noted: GHAZAL et al., Egypt. Pharm. Bull., 1960, 42, 465; cited from earlier work.
Consider `CCN(CC)C(=O)c1cc(-c2ccccc2)nc2ccccc12` [Example 1, N,N-diethyl-2-phenylquinoline-4-carboxamide], for which the “pharmacological properties described in the literature” value was “uricosuric and anti-pyretic properties”.

For the next assay, the target named is T1, peripheral-type receptor sites for benzodiazepines (Rattus norvegicus, UniProt P16257).
T1 construct: on rat kidney membranes; from tissue; host or cells: rat kidney membranes
The assay is described as follows: Affinity for the peripheral-type receptor sites for benzodiazepines: displacement of 3H-diazepam on rat kidney membranes. The conditions noted are these: peripheral versus cerebral benzodiazepine receptors. It counts as binding. How it is done:
The affinity of the compounds of formula (I) for the peripheral-type receptor sites was determined, using the procedure of BRAESTRUP et al., Proc. Natl. Acad. Sci. U.S.A., 1977, 74, 3805, on rat kidney membranes.
`CCN(CC)C(=O)c1cc(-c2ccccc2)cc2ccccc12` [Example 20, N,N-diethyl-3-phenylnaphthalene-1-carboxamide]: the “preferential action on peripheral receptors (versus cerebral)” value was “act preferentially on peripheral receptors”.

Staying with this assay, now noted: rat kidney membranes, 3H-diazepam displacement.
The compound `CCN(CC)C(=O)c1nc(-c2ccccc2Cl)nc2ccccc12` [Example 22, N,N-diethyl-2-(2-chlorophenyl)-quinazoline-4-carboxamide] had an inhibition constant Ki of 270 nM.
As for `CCC(C)N(C)C(=O)c1cc(-c2ccccc2)nc2ccccc12` (stereo not drawn) [Example 43, N-methyl-N-(1-methylpropyl)-2-phenylquinoline-4-carboxamide], the Ki came out at 100 nM.
On the same count and under the same terms, the result for `CCN(CC)C(=O)c1cc(-c2ccc(Cl)c(Cl)c2)nc2ccccc12` [Example 37, N,N-diethyl-2-(3,4-dichlorophenyl)-quinoline-4-carboxamide] reads 117 nM; that for `CCN(CC)C(=O)c1cc(-c2ccccc2)cc2ccccc12` [Example 20, N,N-diethyl-3-phenylnaphthalene-1-carboxamide], 2 nM.
The compound `CCC(C)N(C)C(=O)c1cc(-c2ccccc2)cc2ccccc12` (stereo not drawn) [Example 21, N-methyl-N-(1-methylpropyl)-3-phenylnaphthalene-1-carboxamide] displayed a Ki of 58 nM.
Consider `CCN(CC)C(=O)c1cc(-c2ccccc2Cl)nc2ccccc12` [Example 8, N,N-diethyl-2-(2-chlorophenyl)-quinoline-4-carboxamide], for which affinity was put at a Ki of 117 nM.
Same read-out and setting: in the case of `CC1CCCC(C)N1C(=O)c1cc(-c2ccccc2Cl)nc2ccccc12` (stereo not drawn) [Example 39, 1-{[2-(2-chlorophenyl)-quinolin-4-yl]-carbonyl}-2,6-dimethylpiperidine] it was 54 nM; in that of `CCC(C)N(CC)C(=O)c1cc(-c2ccccc2Cl)nc2ccccc12` (stereo not drawn) [Example 17, N-ethyl-N-(1-methylpropyl)-2-(2-chlorophenyl)-quinoline-4-carboxamide], 9 nM; in that of `CCN(CC)C(=O)c1cc(-c2ccc(F)cc2)nc2ccccc12` [Example 10, N,N-diethyl-2-(4-fluorophenyl)-quinoline-4-carboxamide], 160 nM.
On the same count and under the same terms, in the case of `CCC(C)N(C(=O)c1cc(-c2ccccc2Cl)nc2ccccc12)C(C)CC` (stereo not drawn) [Example 16, N,N-di-(1-methylpropyl)-2-(2-chlorophenyl)-quinoline-4-carboxamide] it was 72 nM; in that of `CCC(C)N(C)C(=O)c1nc(-c2ccccc2)cc2ccccc12` (stereo not drawn) [Example 51, N-methyl-N-(1-methylpropyl)-3-phenylisoquinoline-1-carboxamide], 45 nM.
For the compound `CCC(C)N(C)C(=O)c1cc(-c2ccccc2Cl)nc2ccccc12` (stereo not drawn) [Example 15, N-methyl-N-(1-methylpropyl)-2-(2-chlorophenyl)-quinoline-4-carboxamide], the affinity corresponds to a Ki of 31 nM.
The compound `O=C(c1cc(-c2ccccc2Cl)nc2ccccc12)N1CCCCC1` [Example 18, 1-[2-(2-chlorophenyl)-quinolin-4-yl]-carbonylpiperidine] had a Ki of 360 nM.
